Structures are written as SMILES.

The test system of data set [1] is human colon carcinoma HT-29. The data set can be described thus: Clonogenic assay under aerobic and hypoxic conditions, HT-29. The following applies: HT 29 cells; for C10 hypoxic: 60 min drug exposure, concentration reducing plating efficiency to 10% of controls; for HCR: ratio of C10 under aerobic and hypoxic conditions; for RHT: ratio of hypoxic TPZ C10 to hypoxic compound C10. It is filed as cell-based. On the procedure:
(§1) Evaluation of the Cytotoxicity of Compounds by Clonogenic Assay Under Aerobic and Hypoxic Conditions.
(§2) Compounds representative of the invention were evaluated under both aerobic and hypoxic conditions in clonogenic assays, using three cell lines: human colon carcinoma HT-29, murine SCCVII, and human lung adenocarcinoma LXFL. Clonogenic survival was determined using aerobic and hypoxic SCCVII cell suspensions. Drug exposures were performed using continuously stirred and gassed single cell suspensions (10^6 cells/mL) at 37° C., equilibrated with 5% CO2 in air or N2 for 60 min before drug addition. After a 60 min drug exposure cells were washed by centrifugation and plated to determine colony formation Cytotoxicity was measured as the concentration required to reduce plating efficiency to 10% of controls (C10). The hypoxic cytotoxicity ratio (HCR) was determined as the ratio of the C10 values under aerobic and hypoxic conditions. The relative hypoxic toxicity (RHT) was determined as the ratio of hypoxic TPZ C10 to hypoxic BTO C10. Abbreviations used in Table 2 are:
(§3) C10=The concentration of drug (in micromolar) to reduce viable cell numbers to 10% of those of control cell cultures grown under the same conditions but not exposed to drug
(§4) RHT=Relative hypoxic toxicity is defined as the ratio of concentrations of Tirapazamine/test compound to give equal cell killing under hypoxic conditions.
(§5) HCR=Hypoxic cytotoxicity ratio is defined as the ratio of drug concentrations under aerobic and hypoxic condition to produce equal cell survival (10%) determined by clonogenic assay

Data set [2] concerns murine SCCVII. Nature of the data set: Clonogenic assay under aerobic and hypoxic conditions, SCCVII. It is filed as cell-based. The conditions noted are these: SCVIII cells; for IC90: Mus musculus, 1 h, hypoxic, 60 min drug exposure, SN (hypoxic), read-out: C10 hypoxic; for HCR: ratio of C10 under aerobic and hypoxic conditions; for RHT: ratio of hypoxic TPZ C10 to hypoxic compound C10. On the procedure:
as §1, §2, §3, §4, §5

For data set [3], the system named is human lung adenocarcinoma LXFL. Nature of the data set: Clonogenic assay under aerobic and hypoxic conditions, LXFL. The following applies: LXFL cells; for C10 hypoxic: 60 min drug exposure; for HCR: ratio of C10 under aerobic and hypoxic conditions; for RHT: ratio of hypoxic TPZ C10 to hypoxic compound C10. It is filed as cell-based. On the procedure: as §1, §2, §3, §4, §5

Data set [4] deals with human colon carcinoma HT-29. The data set can be described thus: Proliferation assay (IC50) under aerobic and hypoxic conditions, HT-29. The conditions noted are these: for RHT: HT-29, ratio Tirapazamine/test compound under hypoxic conditions; for HCR: HT-29, ratio of IC50 under aerobic and hypoxic conditions; for IC50: Homo sapiens, HT-29, hypoxic (anoxia <0.001% O2), 4 h exposure. It is filed as cell-based. On the procedure:
(§6) Evaluation of the Cytotoxicity of Compounds by Proliferation Assay (IC50) Under Aerobic and Hypoxic Conditions.
(§7) Compounds representative of the invention were evaluated under both aerobic and hypoxic conditions in a proliferation assay (IC50), using two cell lines: human colon carcinoma HT-29, and human cervical carcinoma SiHa.
(§8) Drug exposures were performed in 96-well plates (Nunc) using either a 37° C. humidified incubator (20% O2, 5% CO2) or in the incubator compartment (37° C.) of an anaerobic chamber (Shell Lab) where palladium catalyst scrubbed gas (90% N2, 5% H2, 5% CO2) ensures severe anoxia (<0.001% O2). For each experiment, compounds were simultaneously tested under both oxic and hypoxic conditions against the HT-29 cell line and included TPZ as an independent internal control at the front and back of the assay (n=2). Final data was pooled from a series of seven independent experiments and is calculated using inter-experimental means. In all cases, 8-methyl-5-nitroquinoline was used as a second internal control to confirm that strict hypoxia was present during the experiment. (Siim et al. Br. J. Cancer 1994, 70, 596-603). Cell cultures were grown in αMEM (Gibco) containing 5% heat inactivated FCS and maintained in exponential growth phase. For each individual experiment an appropriate number of cells were seeded (HT-29=1000) into wells in αMEM÷10% FCS+10 mM added glucose+100 μM 2′-deoxycytidine (2′dCyd), and allowed to attach for 3 h. High glucose (final concentration 17 mM) and the presence of 2′-dCyd minimize hypoxia-induced cell cycle arrest. Replicates were then exposed to BTOs, using 2-fold serial dilutions in triplicate, for a further 4 h. Subsequently cells were washed free of compound using complete media (without glucose/2′-dCyd) and allowed to grow for 5 (oxic) or 6 (anoxic) days. Plates were stained as described previously (Wilson et al., J. Med. Chem. 1989, 32, 31-38) and IC50 values determined.
(§9) IC50=The concentration of drug (in micromolar) to reduce viable cell numbers to 50% of those of control cell cultures grown under the same conditions but not exposed to drug
as §4
(§10) HCR=Hypoxic cytotoxicity ratio is defined as the ratio of drug concentrations under aerobic and hypoxic condition to produce equal cell survival (50%) determined by proliferation assay

For data set [5] the following is noted: cited from earlier work.
In data set [6] the test system is human cervical carcinoma SiHa. Nature of the data set: Proliferation assay (IC50) under aerobic and hypoxic conditions, SiHa. The following applies: for IC50: Homo sapiens, hypoxic, 4 h exposure; for RHT: ratio Tirapazamine/test compound under hypoxic conditions; for HCR: ratio of IC50 under aerobic and hypoxic conditions. The format is cell-based. On the procedure: as §6, §7, §8, §9, §4, §10

Turning to `[O-][n+]1nc(NCCCCCCNc2c3ccccc3nc3ccccc23)[n+]([O-])c2ccccc21` [Compound 11, N^1-(9-Acridinyl)-N^6-(1,4-dioxido-1,2,4-benzotriazin-3-yl)-1,6-hexanediamine], in data set [1], the C10 hypoxic was determined as 0.12 µM, the HCR amounted to 83.0 and the RHT is 416. In data set [2], the IC90 was determined as 480 nM, the HCR worked out at 20.0 and the RHT is reported as 16.7. In data set [3], the C10 hypoxic came to 0.04 µM, the HCR is recorded as 35.0 and the RHT is 450. Also, in data set [4], the RHT is given as 370, the HCR was 38 and half-maximal inhibition (IC50) was put at 16 nM.
With `Nc1nnc2ccccc2n1` [SR 4330], the “activity under aerobic or hypoxic conditions” value in data set [5] is “inactive”.
Consider `CN(CCCNC(=O)c1cccc2cc3ccccc3nc12)CCCNc1n[n+]([O-])c2ccccc2[n+]1[O-]` [Compound 41, N-{3-[{3-[(1,4-Dioxido-1,2,4-benzotriazin-3-yl)amino]propyl}(methyl)amino]propyl}-4-acridinecarboxamide], for which, in data set [2], the IC90 is 800 nM, the HCR stood at 52.5 and the RHT was determined as 12.5. Further, in data set [3], the C10 hypoxic is 0.4 µM, the HCR came to 50 and the RHT came out at 37.5. For the same molecule, in data set [4], the RHT is 134, the HCR came out at 154 and the IC50 was 43 nM.
Consider `Nc1nc2ccccc2[n+]([O-])n1` [SR 4317], for which the “activity under aerobic or hypoxic conditions” value in data set [5] is “inactive”.
In turn, `CN(CCNC(=O)c1cccc2ccc(-c3ccncc3)nc12)CCNc1n[n+]([O-])c2ccccc2[n+]1[O-]` [Compound 96, N-{2-[{2-[(1,4-Dioxido-1,2,4-benzotriazin-3-yl)amino]ethyl}(methyl)amino]ethyl}-2-(4-pyridinyl)-8-quinolinecarboxamide] showed a melting point of 130 to 135 °C. Also, in data set [2], the IC90 was 2300 nM, the HCR worked out at 65 and the RHT is 3.9. For the same molecule, in data set [4], the RHT is 31, the HCR came out at 77 and the IC50 is 190 nM. Moreover, in data set [6], half-maximal inhibition (IC50) required 100 nM, the RHT was determined as 37 and the HCR was 78.
On to `O=C(NCCCNCCCNc1n[n+]([O-])c2ccccc2[n+]1[O-])c1cccc2cc3ccccc3nc12` [Compound 30, N-[3-({3-[(1,4-Dioxido-1,2,4-benzotriazin-3-yl)amino]propyl}amino)propyl]-4-acridinecarboxamide], for which the C10 hypoxic was determined as 0.9 µM in data set [1] and 0.4 µM in data set [3]. Besides, the HCR in data set [1] came out at 33.0; in data set [2], 21.3; in data set [3], 12.5; in data set [4], 167; in data set [6], 41. Moreover, the RHT in data set [1] is on record as 78; in data set [2] it was 20; in data set [3], 50; in data set [4], 90; in data set [6], 121. Further, the IC90 in data set [2] was determined as 300 nM. Besides, the results for the IC50 in data set [4] and in data set [6] were 65 nM and 31 nM, respectively.

The record behind these values is patent US20070191372A1, “Dna-targeted benzotriazine 1,4-dioxides and their use in cancer therapy” (Auckland Uniservices Limited, priority 2002, published 2007).
